One series concerns Normal human melanocytes. The series can be described thus: Inhibitory action on elongation of dendrites. It counts as cell-based. The method, then: According to the following method, inhibitory action on elongation of dendrites was examined using human melanocytes.
(Cell) Normal human melanocytes
(Medium) Basic medium (Medium 154S) to which the following reagents were added
(Reagent) Growth additive: bovine pituitary extract (BPE) (final concentration in the medium: 0.4% v/v), fetus bovine serum (FBS) (final concentration in the medium: 0.5% v/v), human recombinant basic fibroblast growth factor (rFGF-B) (final concentration in the medium: 3 ng/ml), hydrocortisone (final concentration in the medium: 0.18 μg/ml), insulin (final concentration in the medium: 5 μg/ml), transferrin (final concentration in the medium: 5 μg/ml), phorbol 12-myristate 13-acetate (PMA) (final concentration in the medium: 10 ng/ml), heparin (final concentration in the medium: 3 μg/ml), PSA solution (mixed solution at a concentration of penicillin: 50,000 Unit/ml, a concentration of streptomycin: 50 μg/ml, and a concentration of amphotericin B: 12.5 μg/ml. Added 1 ml thereof for 500 ml of the medium.) (Test Method)
Normal human melanocytes were seeded (3,000 cells/well) into a 48-well microplate into which the above medium (198 μl/well) was poured, and cultured at 37° C. After 24 hours, Compound 1 (centaureidin) produced in Production Example 6 was dissolved in dimethyl sulfoxide (DMSO) at final concentrations in the medium of 0 mM (control), 0.1 mM, 0.5 mM, and 1 mM, to obtain sample solutions. To 1 μl of each of those sample solutions, 9 μl of the medium were added. 2 μl of each solution were added into each well of the microplate and culture was continued. After 24 hours from addition of the samples, the length of dendrites was observed.
In the same manner as in Test Example 1, but using extracts produced in Production Examples 1 to 5, sample solutions were prepared so that the final concentration of Compound 1 (centaureidin) in the medium was 0.5 mM, to thereby examine inhibitory action on elongation of dendrites.
In the same manner as in Test Example 1, Compounds 2 to 4 were further examined for inhibitory action on elongation of dendrites under the condition that the final concentration in the medium was 0.5 mM.

Another series concerns melanoma B-16 cells. It counts as cell-based. To be noted: 48 hours. The method, then: The effect of the combination of a compound (A) and 4-n-butyl resorcinol was studied using melanoma B-16 cells (obtained from Tomita Laboratory at Tohoku University, School of Medicine). MEM (modified Eagle's medium) supplemented with 15% FBS (fetal bovine serum) to which Compound 1 (centaureidin) and 4-butyl resorcinol at various concentrations were added was placed in each well of a microtiter plate. Melanoma B-16 cells were seeded into each well at a dose of 5×10^5 cells/ml and cultured for 48 hours. The cells were collected by means of centrifugal separation and washed twice with the medium, and then the color and number of the cells were judged using scores. Cells cultured without addition of both Compound 1 and 4-n-butyl resorcinol were used as a control, and judgment was carried out based on the following criteria: the color, score 0: the same as the control, score 1: slightly paler than the control, score 2: apparently paler than the control, score 3: cells were almost white, score 4: cells were white; the number of cells, score 0: almost all the cells were dead, score 1: nine-tenth of the cells were dead, score 2: about half the cells were dead, score 3: a few cells were dead, score 4: the number of cells was equal to that of the control. […] Such action is in good accordance with inhibitory action of Compound 1 on dendrites of melanocytes.

[1] abbreviates: Compounds 2 to 4, final concentration in the medium 0.5 mM, 24 hours.
The mark [2] stands for this setting: centaureidin 0 mM, 4-n-butyl resorcinol 0.01 % by mass.
Setting [3] is: centaureidin 0 mM, 4-n-butyl resorcinol 0.1 % by mass.
[4] abbreviates: centaureidin 0 mM, 4-n-butyl resorcinol 0.5 % by mass.
The mark [5] stands for this setting: normal human melanocytes, 24 hours.
Where [6] appears, read: centaureidin 0.1 mM, 4-n-butyl resorcinol 0 % by mass.
[7] abbreviates: centaureidin 0.5 mM, 4-n-butyl resorcinol 0 % by mass.

The source of these data is US7795300B2, “External preparation for skin” (Kuraray Co., Ltd., priority 2003, dated 2010).

Molecules are shown by their SMILES. Read-outs that look alike come from different tables or passages of the source.

Compound `CCOc1cc(-c2oc3cc(OC)c(OC)c(OCC)c3c(=O)c2OCC)ccc1OC` [Compound 3, 3,5-diethoxy-6,7-dimethoxy-2-(5-ethoxy-4-methoxyphenyl)-4H-1-benzopyran-4-one] returned a Length of dendrite in the series on Normal human melanocytes (setting [1]) of 47 ± 28 μm.
Take `COc1cc(OC)c(-c2oc3cc(OC)c(O)c(O)c3c(=O)c2OC)cc1O` [Compound 4, 5,6-dihydroxy-3,7-dimethoxy-2-(5-hydroxy-2,4-dimethoxyphenyl)-4H-1-benzopyran-4-one]: the Length of dendrite in the series on Normal human melanocytes (setting [1]) is 31 ± 22 μm.
As to `CCCCc1ccc(O)cc1O` [4-n-butyl resorcinol], the Color of cells entry in the series with melanoma B-16 cells (setting [2]) is on record as “score 1”; in the series on melanoma B-16 cells (setting [3]), “score 3”; in the series on melanoma B-16 cells (setting [4]) it was “score 4”. The Number of cells entry in the series on melanoma B-16 cells (setting [2]) is “score 3”; with melanoma B-16 cells (setting [3]) it was “score 2”; in the series on melanoma B-16 cells (setting [4]) it was “score 1”.
For the compound `COc1ccc(-c2oc3cc(O)c(OC)c(O)c3c(=O)c2OC)cc1O` [Compound 1, 5,7-dihydroxy-3,6-dimethoxy-2-(5-hydroxy-4-methoxyphenyl)-4H-1-benzopyran-4-one], the Length of dendrite in the series with Normal human melanocytes (centaureidin 0.1 mM final concentration in medium, 24 hours after addition, control (0 mM) 140 ± 29) came to 101 ± 15 μm; in the series on Normal human melanocytes (centaureidin 0.5 mM final concentration in medium, 24 hours after addition, control (0 mM) 140 ± 29) it was 26 ± 8 μm; with Normal human melanocytes (centaureidin 1 mM final concentration in medium, 24 hours after addition, control (0 mM) 140 ± 29), 24 ± 6 μm. In addition, the “Concentration at which inhibitory action on elongation of dendrites can be confirmed” value in the series with Normal human melanocytes (setting [5]) is “at least 0.1 mM”. Further, in the series with Normal human melanocytes (setting [5]), the “Concentration at which inhibitory action on elongation of dendrites is particularly remarkable” value was no less than 0.5 mM. Moreover, the “Inhibitory action on elongation of dendrites (in words)” value in the series on Normal human melanocytes (normal human melanocytes, 24 hours after addition) is on record as “elongation of dendrites is inhibited”. Further, the Color of cells entry in the series with melanoma B-16 cells (setting [6]) and with melanoma B-16 cells (setting [7]) was “score 1” each time. Also, the Number of cells entry in the series on melanoma B-16 cells (setting [6]) and with melanoma B-16 cells (setting [7]) was “score 3” throughout. Moreover, the “Effect on cell death (in words)” value in the series with melanoma B-16 cells (melanoma B-16 cells cultured with 4-n-butyl resorcinol) is listed as “inhibits cell death”.
`COc1c(O)c(OC)c2oc(-c3cc(O)c(O)c(O)c3)c(OC)c(=O)c2c1O` [Compound 2, 5,7-dihydroxy-3,6,8-trimethoxy-2-(3,4,5-trihydroxyphenyl)-4H-1-benzopyran-4-one] had a Length of dendrite in the series on Normal human melanocytes (setting [1]) of 34 ± 19 μm.
